Laboratory results as given in PubChem BioAssay (NCI).
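A five-concentration, 48-hour dose response in 96-well plates underlies each endpoint, interpolated linearly between surrounding concentrations. GI50 marks 50% less growth. At the TGI there is no net growth.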

Assays:
Experiment in all cases: growth of human tumour cells (NCI), 48 h
[1] = system: MDA-MB-435
[2] = system: SF-268 CNS
[3] = system: HCC-2998 colon
[4] = system: NCI-H23 lung
[5] = system: TK-10 renal
[6] = system: SF-295 CNS
[7] = system: K-562 leukemia
[8] = system: SNB-75 CNS
[9] = system: HCT-116 colon
[10] = system: UACC-257 melanoma
[11] = system: OVCAR-8 ovarian
[12] = system: RXF 393 renal
[13] = system: MOLT-4 leukemia
[14] = system: HT29 colon
[15] = system: M14 melanoma
[16] = system: MALME-3M melanoma
[17] = system: U251 CNS
[18] = system: SNB-19 CNS
[19] = system: NCI/ADR-RES ovarian
[20] = system: KM12 colon
[21] = system: OVCAR-3 ovarian
[22] = system: SK-MEL-28 melanoma
[23] = system: A549 NSCLC
[24] = system: NCI-H460 lung
[25] = system: DU-145 prostate
[26] = system: SF-539 CNS
[27] = system: T-47D breast
[28] = system: EKVX NSCLC
[29] = system: OVCAR-4 ovarian
[30] = system: SW-620 colon
[31] = system: UACC-62 melanoma
[32] = system: SR leukemia
[33] = system: SK-MEL-2 melanoma
[34] = system: MDA-MB-231 breast
[35] = system: PC-3 prostate
[36] = system: UO-31 renal
[37] = system: CCRF-CEM leukemia
[38] = system: HCT-15 colon
[39] = system: HOP-62 NSCLC
[40] = system: CAKI-1 renal
[41] = system: NCI-H522 lung
[42] = system: LOX IMVI melanoma
[43] = system: A498 renal
[44] = system: MCF7 breast
[45] = system: SN12C renal
[46] = system: OVCAR-5 ovarian
[47] = system: HS 578T breast
[48] = system: HOP-92 NSCLC
[49] = system: ACHN renal
[50] = system: NCI-H226 lung
[51] = system: SK-MEL-5 melanoma
[52] = system: 786-0 renal
[53] = system: BT-549 breast
[54] = system: HL-60(TB) leukemia
[55] = system: IGROV1 ovarian
[56] = system: COLO 205 colon
[57] = system: RPMI-8226 leukemia
[58] = system: SK-OV-3 ovarian

NC(=O)c1c(NC(=O)c2cccs2)sc2c1CCC(=O)C2
GI50 [1]: 2.95 µM | TGI [1]: 10.6 µM | GI50 [2]: 3.21 µM | TGI [2]: > 100 µM | GI50 [3]: 4.13 µM | TGI [3]: 48.9 µM | GI50 [4]: 1.83 µM | TGI [4]: 7.34 µM | GI50 [5]: 6.33 µM | TGI [5]: > 100 µM | GI50 [6]: 2.86 µM | TGI [6]: 9.42 µM | GI50 [7]: 0.736 µM | TGI [7]: > 100 µM | GI50 [8]: 1.7 µM | TGI [8]: 9.05 µM | GI50 [9]: 1.7 µM | TGI [9]: 13.7 µM | GI50 [10]: 2.73 µM | TGI [10]: 7.08 µM | GI50 [11]: 3.02 µM | TGI [11]: > 100 µM | GI50 [12]: 2.05 µM | TGI [12]: 8.49 µM | GI50 [13]: 2.28 µM | TGI [13]: 16.1 µM | GI50 [14]: 3.12 µM | TGI [14]: > 100 µM | GI50 [15]: 3.73 µM | TGI [15]: > 100 µM | GI50 [16]: 1.85 µM | TGI [16]: 4.58 µM | GI50 [17]: 2.28 µM | TGI [17]: > 100 µM | GI50 [18]: 3.49 µM | TGI [18]: > 100 µM | GI50 [19]: 2.5 µM | TGI [19]: 26.4 µM | GI50 [20]: 2.18 µM | TGI [20]: 9.52 µM | GI50 [21]: 1.8 µM | TGI [21]: 5.93 µM | GI50 [22]: 4.52 µM | TGI [22]: > 100 µM | GI50 [23]: 3.5 µM | TGI [23]: > 100 µM | GI50 [24]: 2.98 µM | TGI [24]: > 100 µM | GI50 [25]: 4.13 µM | TGI [25]: > 100 µM | GI50 [26]: 1.54 µM | TGI [26]: 5.06 µM | GI50 [27]: 2.05 µM | TGI [27]: > 100 µM | GI50 [28]: 2.54 µM | TGI [28]: 87.1 µM | GI50 [29]: 0.761 µM | TGI [29]: 2.75 µM | GI50 [30]: 0.809 µM | TGI [30]: 16.8 µM | GI50 [31]: 0.811 µM | TGI [31]: 4.43 µM | GI50 [32]: 1.43 µM | TGI [32]: > 100 µM | GI50 [33]: 2.71 µM | TGI [33]: 7.78 µM | GI50 [34]: 1.99 µM | TGI [34]: 6.28 µM | GI50 [35]: 0.627 µM | TGI [35]: > 100 µM | GI50 [36]: 1.58 µM | TGI [36]: 10.1 µM | GI50 [37]: 0.458 µM | TGI [37]: > 100 µM | GI50 [38]: 1.65 µM | TGI [38]: 17.9 µM | GI50 [39]: 3.65 µM | TGI [39]: > 100 µM | GI50 [40]: 2.65 µM | TGI [40]: > 100 µM | GI50 [41]: 0.892 µM | TGI [41]: 7.92 µM | GI50 [42]: 2.44 µM | TGI [42]: 14.2 µM | GI50 [43]: 6 µM | TGI [43]: 52.9 µM | GI50 [44]: 2.48 µM | TGI [44]: 18.7 µM | GI50 [45]: 2.95 µM | TGI [45]: > 100 µM | GI50 [46]: 2.68 µM | TGI [46]: 9.23 µM | GI50 [47]: 3.27 µM | TGI [47]: > 100 µM | GI50 [48]: 1.38 µM | TGI [48]: 4 µM | GI50 [49]: 2.16 µM | TGI [49]: 8.88 µM | GI50 [50]: 3.96 µM | TGI [50]: 48.3 µM | GI50 [51]: 1.62 µM | TGI [51]: 3.19 µM | GI50 [52]: 4.34 µM | TGI [52]: > 100 µM | GI50 [53]: 2.08 µM | TGI [53]: 8.41 µM | GI50 [54]: 2.45 µM | TGI [54]: 7.13 µM | GI50 [55]: 1.98 µM | TGI [55]: 36.7 µM

C[C@@H](Nc1cc(F)cc(F)c1)c1cc(C(=O)N(C)C)cc2c(=O)cc(N3CCOCC3)oc12
GI50 [1]: 8.17 µM | TGI [1]: > 100 µM | GI50 [2]: 22.4 µM | TGI [2]: > 100 µM | GI50 [3]: 10.4 µM | TGI [3]: > 100 µM | GI50 [4]: > 87 µM | TGI [4]: > 100 µM | GI50 [56]: 7.09 µM | TGI [56]: 51.1 µM | GI50 [57]: 36.7 µM | TGI [57]: > 100 µM | GI50 [5]: 2.64 µM | TGI [5]: > 100 µM | GI50 [6]: 1.23 µM | TGI [6]: 59.9 µM | GI50 [7]: 67.2 µM | TGI [7]: > 100 µM | GI50 [8]: 0.0398 µM | TGI [8]: 3.64 µM | GI50 [9]: 10.2 µM | TGI [9]: > 100 µM | GI50 [10]: 2.6 µM | TGI [10]: > 100 µM | GI50 [11]: 25.5 µM | TGI [11]: > 100 µM | GI50 [12]: 0.0251 µM | TGI [12]: 0.973 µM | GI50 [13]: 2.06 µM | TGI [13]: 52.6 µM | GI50 [14]: 4.04 µM | TGI [14]: > 100 µM | GI50 [15]: 24.3 µM | TGI [15]: > 100 µM | GI50 [16]: 7.12 µM | TGI [16]: > 84.9 µM | GI50 [17]: 8.58 µM | TGI [17]: > 100 µM | GI50 [18]: 10.7 µM | TGI [18]: > 100 µM | GI50 [19]: > 83.9 µM | TGI [19]: > 100 µM | GI50 [20]: > 46.1 µM | TGI [20]: > 100 µM | GI50 [21]: 1.25 µM | TGI [21]: 61.8 µM | GI50 [22]: 2.5 µM | TGI [22]: > 100 µM | GI50 [23]: 7.43 µM | TGI [23]: > 100 µM | GI50 [24]: 5.61 µM | TGI [24]: > 100 µM | GI50 [25]: 33.1 µM | TGI [25]: > 100 µM | GI50 [26]: 3.58 µM | TGI [26]: 50.3 µM | GI50 [27]: 0.315 µM | TGI [27]: 6.94 µM | GI50 [29]: 26.1 µM | TGI [29]: > 100 µM | GI50 [30]: 25.1 µM | TGI [30]: > 100 µM | GI50 [31]: 1.13 µM | TGI [31]: 20.9 µM | GI50 [32]: 21.9 µM | TGI [32]: > 100 µM | GI50 [33]: 25.8 µM | TGI [33]: > 100 µM | GI50 [34]: 24.7 µM | TGI [34]: > 100 µM | GI50 [35]: 0.586 µM | TGI [35]: > 100 µM | GI50 [36]: 2.38 µM | TGI [36]: > 100 µM | GI50 [37]: 27.5 µM | TGI [37]: > 100 µM | GI50 [38]: 14.9 µM | TGI [38]: > 100 µM | GI50 [39]: 7.13 µM | TGI [39]: > 100 µM | GI50 [58]: 2.18 µM | TGI [58]: > 65.3 µM | GI50 [40]: 9.44 µM | TGI [40]: > 100 µM | GI50 [41]: 20.8 µM | TGI [41]: > 100 µM | GI50 [42]: 8.72 µM | TGI [42]: > 100 µM | TGI [43]: < 0.0203 µM | GI50 [44]: 0.894 µM | TGI [44]: 99 µM | GI50 [45]: 7.14 µM | TGI [45]: > 100 µM | GI50 [46]: 4.16 µM | TGI [46]: > 100 µM | GI50 [47]: 0.693 µM | TGI [47]: 23.6 µM | GI50 [48]: < 0.0389 µM | TGI [48]: 13 µM | GI50 [49]: 3.51 µM | TGI [49]: > 100 µM | GI50 [50]: > 88.2 µM | TGI [50]: > 100 µM | GI50 [51]: 22.1 µM | TGI [51]: > 76.8 µM | GI50 [52]: 0.192 µM | TGI [52]: > 100 µM | GI50 [53]: 0.14 µM | TGI [53]: 38.4 µM | GI50 [54]: 2.17 µM | TGI [54]: > 57.6 µM | GI50 [55]: 0.73 µM | TGI [55]: 11.1 µM
